Test results: US8192962B2, “Processes for detecting toxic substances” (Daikin Industries, Ltd., priority 2001, dated 2012)

System: Energy system protein genes
Assay: DNA chip mRNA expression in yeast, energy system protein genes (Table 4)
Assay type: cell-based, Saccharomyces cerevisiae S288C
Method in brief: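 In this screen, yeast in logarithmic growth are challenged for two hours with a toxic substance at a non-lethal inhibitory concentration. Their mRNA, converted to Cy3- or Cy5-labeled cDNA, hybridizes at 65° C. to a chip spanning every yeast gene, and expression is expressed as a ratio to untreated cells.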

C=CC=O [(14), acrolein]
The level of expressed mRNA in the presence of chemical substance/The level of expressed mRNA in the absence of chemical substance (yeast gene YAL060W): 0.9 | The level of expressed mRNA in the presence of chemical substance/The level of expressed mRNA in the absence of chemical substance (yeast gene YBL058W, cells incubated two hours with the chemical substance): 1.3 | The level of expressed mRNA in the presence of chemical substance/The level of expressed mRNA in the absence of chemical substance (yeast gene YBL099W, cells incubated two hours with the chemical substance): 0.6 | The level of expressed mRNA in the presence of chemical substance/The level of expressed mRNA in the absence of chemical substance (yeast gene YBR001C, cells incubated two hours with the chemical substance): 1.2 | The level of expressed mRNA in the presence of chemical substance/The level of expressed mRNA in the absence of chemical substance (yeast gene YBR185C, cells incubated two hours with the chemical substance): 1.7 | The level of expressed mRNA in the presence of chemical substance/The level of expressed mRNA in the absence of chemical substance (yeast gene YBR221C, cells incubated two hours with the chemical substance): 0.8 | The level of expressed mRNA in the presence of chemical substance/The level of expressed mRNA in the absence of chemical substance (yeast gene YBR299W): 1.4 | The level of expressed mRNA in the presence of chemical substance/The level of expressed mRNA in the absence of chemical substance (yeast gene YCL040W): 0.7 | The level of expressed mRNA in the presence of chemical substance/The level of expressed mRNA in the absence of chemical substance (yeast gene YCR012W): 0.9 | The level of expressed mRNA in the presence of chemical substance/The level of expressed mRNA in the absence of chemical substance (yeast gene YCR046C, cells incubated two hours with the chemical substance): 1.3 | The level of expressed mRNA in the presence of chemical substance/The level of expressed mRNA in the absence of chemical substance (yeast gene YCR105W, cells incubated two hours with the chemical substance): 1.9 | The level of expressed mRNA in the presence of chemical substance/The level of expressed mRNA in the absence of chemical substance (yeast gene YDL021W): 3.7 | The level of expressed mRNA in the presence of chemical substance/The level of expressed mRNA in the absence of chemical substance (yeast gene YDL067C, cells incubated two hours with the chemical substance): 1.4 | The level of expressed mRNA in the presence of chemical substance/The level of expressed mRNA in the absence of chemical substance (yeast gene YDL078C, cells incubated two hours with the chemical substance): 0.8 | The level of expressed mRNA in the presence of chemical substance/The level of expressed mRNA in the absence of chemical substance (yeast gene YDL107W, cells incubated two hours with the chemical substance): 1.5 | The level of expressed mRNA in the presence of chemical substance/The level of expressed mRNA in the absence of chemical substance (yeast gene YDL174C): 1.1 | The level of expressed mRNA in the presence of chemical substance/The level of expressed mRNA in the absence of chemical substance (yeast gene YDL181W, cells incubated two hours with the chemical substance): 1.1 | The level of expressed mRNA in the presence of chemical substance/The level of expressed mRNA in the absence of chemical substance (yeast gene YDR001C): 1.0 | The level of expressed mRNA in the presence of chemical substance/The level of expressed mRNA in the absence of chemical substance (yeast gene YDR050C, cells incubated two hours with the chemical substance): 1.2 | The level of expressed mRNA in the presence of chemical substance/The level of expressed mRNA in the absence of chemical substance (yeast gene YDR079W, cells incubated two hours with the chemical substance): 1.5 | The level of expressed mRNA in the presence of chemical substance/The level of expressed mRNA in the absence of chemical substance (yeast gene YDR178W, cells incubated two hours with the chemical substance): 1.5 | The level of expressed mRNA in the presence of chemical substance/The level of expressed mRNA in the absence of chemical substance (yeast gene YDR231C): 1.5 | The level of expressed mRNA in the presence of chemical substance/The level of expressed mRNA in the absence of chemical substance (yeast gene YDR298C, cells incubated two hours with the chemical substance): 1.5 | The level of expressed mRNA in the presence of chemical substance/The level of expressed mRNA in the absence of chemical substance (yeast gene YDR377W, cells incubated two hours with the chemical substance): 1.4 | The level of expressed mRNA in the presence of chemical substance/The level of expressed mRNA in the absence of chemical substance (yeast gene YDR529C, cells incubated two hours with the chemical substance): 1.5 | The level of expressed mRNA in the presence of chemical substance/The level of expressed mRNA in the absence of chemical substance (yeast gene YEL024W, cells incubated two hours with the chemical substance): 1.1 | The level of expressed mRNA in the presence of chemical substance/The level of expressed mRNA in the absence of chemical substance (yeast gene YEL039C, cells incubated two hours with the chemical substance): 1.4 | The level of expressed mRNA in the presence of chemical substance/The level of expressed mRNA in the absence of chemical substance (yeast gene YER178W): 0.9 | The level of expressed mRNA in the presence of chemical substance/The level of expressed mRNA in the absence of chemical substance (yeast gene YFL057C): 23.4 | The level of expressed mRNA in the presence of chemical substance/The level of expressed mRNA in the absence of chemical substance (yeast gene YFR053C): 0.6 | The level of expressed mRNA in the presence of chemical substance/The level of expressed mRNA in the absence of chemical substance (yeast gene YGL018C, cells incubated two hours with the chemical substance): 1.2 | The level of expressed mRNA in the presence of chemical substance/The level of expressed mRNA in the absence of chemical substance (yeast gene YGL062W): 1.2 | The level of expressed mRNA in the presence of chemical substance/The level of expressed mRNA in the absence of chemical substance (yeast gene YGL187C, cells incubated two hours with the chemical substance): 0.9 | The level of expressed mRNA in the presence of chemical substance/The level of expressed mRNA in the absence of chemical substance (yeast gene YGL191W, cells incubated two hours with the chemical substance): 1.6 | The level of expressed mRNA in the presence of chemical substance/The level of expressed mRNA in the absence of chemical substance (yeast gene YGL205W, cells incubated two hours with the chemical substance): 1.0 | The level of expressed mRNA in the presence of chemical substance/The level of expressed mRNA in the absence of chemical substance (yeast gene YGL256W, cells incubated two hours with the chemical substance): 0.9 | The level of expressed mRNA in the presence of chemical substance/The level of expressed mRNA in the absence of chemical substance (yeast gene YGR043C): 4.1 | The level of expressed mRNA in the presence of chemical substance/The level of expressed mRNA in the absence of chemical substance (yeast gene YGR062C, cells incubated two hours with the chemical substance, 25° C., YPD medium): 1.2 | The level of expressed mRNA in the presence of chemical substance/The level of expressed mRNA in the absence of chemical substance (yeast gene YGR087C, cells incubated two hours with the chemical substance): 0.7 | The level of expressed mRNA in the presence of chemical substance/The level of expressed mRNA in the absence of chemical substance (yeast gene YGR174C, cells incubated two hours with the chemical substance): 1.6 | The level of expressed mRNA in the presence of chemical substance/The level of expressed mRNA in the absence of chemical substance (yeast gene YGR192C): 1.0 | The level of expressed mRNA in the presence of chemical substance/The level of expressed mRNA in the absence of chemical substance (yeast gene YGR244C): 1.2 | The level of expressed mRNA in the presence of chemical substance/The level of expressed mRNA in the absence of chemical substance (yeast gene YGR254W): 0.6 | The level of expressed mRNA in the presence of chemical substance/The level of expressed mRNA in the absence of chemical substance (yeast gene YHR179W): 5.8 | The level of expressed mRNA in the presence of chemical substance/The level of expressed mRNA in the absence of chemical substance (yeast gene YIL160C): 1.5 | The level of expressed mRNA in the presence of chemical substance/The level of expressed mRNA in the absence of chemical substance (yeast gene YIR031C, cells incubated two hours with the chemical substance): 1.2 | The level of expressed mRNA in the presence of chemical substance/The level of expressed mRNA in the absence of chemical substance (yeast gene YJL052W): 1.3 | The level of expressed mRNA in the presence of chemical substance/The level of expressed mRNA in the absence of chemical substance (yeast gene YJL121C, cells incubated two hours with the chemical substance): 0.9 | The level of expressed mRNA in the presence of chemical substance/The level of expressed mRNA in the absence of chemical substance (yeast gene YJL166W, cells incubated two hours with the chemical substance): 1.9 | The level of expressed mRNA in the presence of chemical substance/The level of expressed mRNA in the absence of chemical substance (yeast gene YJL216C, cells incubated two hours with the chemical substance): 1.1 | The level of expressed mRNA in the presence of chemical substance/The level of expressed mRNA in the absence of chemical substance (yeast gene YJR009C): 1.0
